The structures appear in SMILES notation.

The results in this text go back to US20160039802A1, “3-PYRIMIDIN-4-YL-OXAZOLIDIN-2-ONES AS INHIBITORS OF MUTANT IDH” (NOVARTIS AG, priority 2013, published 2016).

The first test deals with T1, Mutant IDH1 R132H (Homo sapiens, UniProt O75874, R132H).
T1 construct: His6 with PreScission site (N, cleaved yes); made in house; host or cells: E. coli Rosetta 2(DE3)
T1 sequence (O75874 whole entry R132H): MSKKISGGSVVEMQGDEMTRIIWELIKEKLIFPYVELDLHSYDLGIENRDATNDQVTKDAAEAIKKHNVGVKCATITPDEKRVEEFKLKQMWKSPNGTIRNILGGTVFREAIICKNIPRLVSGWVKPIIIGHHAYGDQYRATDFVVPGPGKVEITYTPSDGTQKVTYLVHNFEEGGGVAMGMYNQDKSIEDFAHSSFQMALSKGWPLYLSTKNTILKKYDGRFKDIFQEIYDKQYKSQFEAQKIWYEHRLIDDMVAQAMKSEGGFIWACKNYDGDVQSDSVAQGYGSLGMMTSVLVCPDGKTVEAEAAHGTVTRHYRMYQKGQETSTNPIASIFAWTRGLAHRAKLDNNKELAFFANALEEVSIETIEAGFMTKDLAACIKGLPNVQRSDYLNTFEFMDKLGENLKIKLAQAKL
The experiment in a line: Mutant IDH1 biochemical assay: LC-MS detection of 2-HG. Note: mIDH R132H 0.25 nM, 5 µM NADPH. The conditions noted are these: mIDH R132H […], 5 uM NADPH, 100 uM alpha-KG, 45 minutes incubation; range where run multiple times. An excerpt:
Mutant IDH1 biochemical Sssay: LC-MS Detection of 2-HG.
The compound `C[C@H](Nc1nccc(N2C(=O)OC[C@]2(C)C2CC2)n1)c1ccc(CN2CCC(N)(CO)CC2)c(F)c1` [Example 42, (S)-3-(2-(((S)-1-(4-((4-amino-4-(hydroxymethyl)piperidin-1-yl)methyl)-3-fluorophenyl)ethyl)amino)pyrimidin-4-yl)-4-cyclopropyl-4-methyloxazolidin-2-one] had an IC50 of 0.217 µM.

On to `C[C@H](Nc1nccc(N2C(=O)OCC2(C)C2CC2)n1)c1ccc(CN2CCN(C)C(C)(C)C2)cc1` (single isomer, unassigned) [Example 55], for which it took 0.0779 µM to reach half-maximal inhibition (IC50).

With `C[C@H](Nc1nccc(N2C(=O)OCC2(C)C2CC2)n1)c1ccc(CN2CCN(C)CC2)cc1` (single isomer, unassigned) [Example 47], the half-maximal inhibitory concentration (IC50) amounted to 0.703 µM.

Compound `C[C@H](Nc1nccc(N2C(=O)OC[C@]2(C)C2CC2)n1)c1ccc(CN2CCC(C)(N)CC2)c(F)c1` [Example 43, (S)-3-(2-(((S)-1-(4-((4-amino-4-methylpiperidin-1-yl)methyl)-3-fluorophenyl)ethyl)amino)pyrimidin-4-yl)-4-cyclopropyl-4-methyloxazolidin-2-one] gave an IC50 of 0.151 µM.

`C[C@H](Nc1nccc(N2C(=O)OC[C@]2(C)C2CC2)n1)c1ccc(CN2CCC(C)(O)CC2)c(F)c1` [Example 31, (S)-4-cyclopropyl-3-(2-(((S)-1-(3-fluoro-4-((4-hydroxy-4-methylpiperidin-1-yl)methyl)phenyl)ethyl)amino)pyrimidin-4-yl)-4-methyloxazolidin-2-one] had an IC50 of 0.267 µM.

`C[C@H](Nc1nccc(N2C(=O)OCC2(C)C2CC2)n1)c1ccc(CN2CCN(C)C(C)(C)C2)cc1` (single isomer, unassigned) [Example 56] had an IC50 of 0.527 µM.

`CC(Nc1nccc(N2C(=O)OC[C@]2(C)C2CC2)n1)c1nc(-c2ccc(Cl)cc2)no1` (single isomer, unassigned) [Example 49]: the IC50 turned out to be 2.52 µM.

Take `Cc1cc(-c2cnc(C(C)Nc3nccc(N4C(=O)OC[C@]4(C)C4CC4)n3)nc2)ccc1F` (single isomer, unassigned) [Example 54]: the half-inhibitory concentration (IC50) is above 5 µM.

In the next test the target is T2, IDH1 (R132H) mutant (Homo sapiens, UniProt O75874, R132H).
T2 construct: His6 with PreScission site (N, cleaved yes); made in house; host or cells: E. coli Rosetta 2(DE3)
T2 sequence (O75874 whole entry R132H): as above
The experiment in a line: Fluorescence biochemical assay (NADPH oxidation). The conditions noted are these: mIDH R132H 10 nM, 10 μM NADPH, 100 μM α-KG; range where run multiple times. As for the experimental part: The IDH1 (R132H) mutant catalyzes the reduced form of NADP+ (NADPH) and α-ketoglutarate (α-KG) to form nicotinamide adenine dinucleotide phosphate (NADP+) and R(−)-2-hydroxyglutarate (2HG). […] Reactions were monitored using the Perkin-Elmer Envision, Model 2101. […] The final reaction mixture contained 2.5% DMSO and test compounds with concentrations ranging 0.0000008-25 μM. The IDH1 (R132H) enzyme was used at a final concentration of 10 nM. Curve fitting for dose response […] determinations was done in the Helios module of the software package DAVID. The 4-parameter logistic model was used: y=min+((max−min)/1+(x/IC50)^shape)
`C[C@H](Nc1nccc(N2C(=O)OC[C@]2(C)C2CC2)n1)c1ccc(CN2CCC(N3CCOCC3)CC2)cc1` [Example 68, (S)-4-cyclopropyl-4-methyl-3-(2-(((S)-1-(4-((4-morpholinopiperidin-1-yl)methyl)phenyl)ethyl)amino)pyrimidin-4-yl)oxazolidin-2-one]: the concentration for half-maximal inhibition (IC50) is 0.096 µM.

In the case of `C[C@H](Nc1nc(Cl)cc(N2C(=O)OC[C@@H]2C2CC2)n1)c1cnc(N2CCOCC2)s1` [Example 6, (S)-3-(6-chloro-2-(((S)-1-(2-morpholinothiazol-5-yl)ethyl)amino)pyrimidin-4-yl)-4-cyclopropyloxazolidin-2-one], the midpoint of inhibition, the IC50, lay at 0.934 µM.

In turn, `Cc1ccc(-c2ncc([C@H](C)Nc3nc(C)cc(N4C(=O)OC[C@@H]4C4CC4)n3)s2)cn1` [Example 13, (S)-4-cyclopropyl-3-(6-methyl-2-(((S)-1-(2-(6-methylpyridin-3-yl)thiazol-5-yl)ethyl)amino)pyrimidin-4-yl)oxazolidin-2-one] showed an IC50 of 0.191 µM.

`C[C@H](Nc1ncc(F)c(N2C(=O)OC[C@@H]2C2CC2)n1)c1nc(-c2ccc(Cl)cc2)no1` [Example 29, (S)-3-(2-((S)-1-(3-(4-chlorophenyl)-1,2,4-oxadiazol-5-yl)ethylamino)-5-fluoropyrimidin-4-yl)-4-cyclopropyloxazolidin-2-one] returned an IC50 of 0.124 µM.

The compound `C[C@H](Nc1nc(Cl)cc(N2C(=O)OC[C@@H]2C2CC2)n1)c1nnc(-c2ccc(Cl)cc2)s1` [Example 4, (S)-3-(6-chloro-2-(((S)-1-(5-(4-chlorophenyl)-1,3,4-thiadiazol-2-yl)ethyl)amino)pyrimidin-4-yl)-4-cyclopropyloxazolidin-2-one] had an IC50 of 0.0248 µM.

The compound `C[C@H](Nc1ncc(F)c(N2C(=O)OC[C@@H]2C2CC2)n1)c1cnc(C(C)(F)F)c(Cl)c1` [Example 22, (S)-3-(2-((S)-1-(5-chloro-6-(1,1-difluoroethyl)pyridin-3-yl)ethylamino)-5-fluoropyrimidin-4-yl)-4-cyclopropyloxazolidin-2-one] returned an IC50 of 1.14 µM.

Compound `C[C@H](Nc1nccc(N2C(=O)OC[C@@H]2C2CC2)n1)c1ccc(CN2CCC(N(C)C)C(F)(F)C2)c(F)c1` (stereo partly drawn) [Example 69, (4S)-4-cyclopropyl-3-(2-(((1S)-1-(4-((4-(dimethylamino)-3,3-difluoropiperidin-1-yl)methyl)-3-fluorophenyl)ethyl)amino)pyrimidin-4-yl)oxazolidin-2-one] returned an IC50 of 0.025 µM.

With `C[C@H](Nc1nccc(N2C(=O)OC[C@@H]2C2CC2)n1)c1cnc(-c2ccc(C(F)F)cc2)s1` [Example 16, (S)-4-cyclopropyl-3-(2-(((S)-1-(2-(4-(difluoromethyl)phenyl)thiazol-5-yl)ethyl)amino)pyrimidin-4-yl)oxazolidin-2-one], half-maximal inhibition (IC50) required 0.0292 µM.

Compound `C[C@H](Nc1nccc(N2C(=O)OC[C@@H]2C2CC2)n1)c1cnc(-c2ccc(C(F)(F)F)nc2)s1` [Example 14, (S)-4-cyclopropyl-3-(2-(((S)-1-(2-(6-(trifluoromethyl)pyridin-3-yl)thiazol-5-yl)ethyl)amino)pyrimidin-4-yl)oxazolidin-2-one] returned a 50% inhibitory concentration (IC50) of 0.0491 µM.

`C[C@H](Nc1nccc(N2C(=O)OC[C@@H]2C2CC2)n1)c1cnc(-c2ccnc(C(F)(F)F)c2)s1` [Example 15, (S)-4-cyclopropyl-3-(2-(((S)-1-(2-(2-(trifluoromethyl)pyridin-4-yl)thiazol-5-yl)ethyl)amino)pyrimidin-4-yl)oxazolidin-2-one] yielded an IC50 of 0.108 µM.

In turn, `C[C@H](Nc1ncc(F)c(N2C(=O)OC[C@@H]2C2CC2)n1)c1ccccc1` [Example 24, (S)-4-cyclopropyl-3-(5-fluoro-2-((S)-1-phenylethylamino)pyrimidin-4-yl)oxazolidin-2-one] displayed a 50% inhibitory concentration (IC50) of 1.19 µM.

`C[C@H](Nc1nc(Cl)cc(N2C(=O)OC[C@@H]2C2CC2)n1)c1cn(-c2ccc(Cl)cc2)cn1` [Example 26, (S)-3-(6-chloro-2-(((S)-1-(1-(4-chlorophenyl)-1H-imidazol-4-yl)ethyl)amino)pyrimidin-4-yl)-4-cyclopropyloxazolidin-2-one] gave an IC50 of 0.349 µM.

In the case of `C[C@H](Nc1nccc(N2C(=O)OC[C@]2(C)C2CC2)n1)c1ccc(CN2CCC(N3CCOCC3)CC2)c(F)c1` [Example 67, (S)-4-cyclopropyl-3-(2-(((S)-1-(3-fluoro-4-((4-morpholinopiperidin-1-yl)methyl)phenyl)ethyl)amino)pyrimidin-4-yl)-4-methyloxazolidin-2-one], half-maximal inhibition (IC50) was put at 0.033 µM.

As for `C[C@H](Nc1nc(F)cc(N2C(=O)OC[C@@H]2C2CC2)n1)c1ccccc1` [Example 1, (S)-4-cyclopropyl-3-(6-fluoro-2-((S)-1-phenylethylamino)pyrimidin-4-yl)oxazolidin-2-one], 0.365 µM corresponded to half-maximal inhibition (IC50).

Take `Cc1cc(N2C(=O)OC[C@@H]2C2CC2)nc(N[C@H](C)c2cn(-c3ccc(Cl)cc3)nn2)n1` [Example 12, (S)-3-(2-(((R)-1-(1-(4-chlorophenyl)-1H-1,2,3-triazol-4-yl)ethyl)amino)-6-methylpyrimidin-4-yl)-4-cyclopropyloxazolidin-2-one]: the IC50 was found to be 0.323 µM.

Regarding `C[C@H](Nc1nccc(N2C(=O)OC[C@@H]2C2CC2)n1)c1ccccc1` [Example 23, (S)-4-cyclopropyl-3-(2-((S)-1-phenylethylamino)pyrimidin-4-yl)oxazolidin-2-one], half-maximal inhibition (IC50) required 1.37 µM.

The compound `C[C@H](Nc1nccc(N2C(=O)OC[C@@H]2C2CC2)n1)c1cnc(OCC(F)(F)F)c(Cl)c1` [Example 25, (S)-3-(2-((S)-1-(5-chloro-6-(2,2,2-trifluoroethoxy)pyridin-3-yl)ethylamino)pyrimidin-4-yl)-4-cyclopropyloxazolidin-2-one] came in with an IC50 of 0.372 µM.

Consider `C[C@H](Nc1ncc(F)c(N2C(=O)OC[C@@H]2C2CC2)n1)c1cnc(OCC(F)(F)F)c(Cl)c1` [Example 21, (S)-3-(2-((S)-1-(5-chloro-6-(2,2,2-trifluoroethoxy)pyridin-3-yl)ethylamino)-5-fluoropyrimidin-4-yl)-4-cyclopropyloxazolidin-2-one], for which 1.2 µM corresponded to half-maximal inhibition (IC50).

Regarding `C[C@H](Nc1nccc(N2C(=O)OC[C@@H]2C2CC2)n1)c1nc(-c2ccc(Cl)cc2)no1` [Example 28, (S)-3-(2-((S)-1-(3-(4-chlorophenyl)-1,2,4-oxadiazol-5-yl)ethylamino)pyrimidin-4-yl)-4-cyclopropyloxazolidin-2-one], the IC50 was found to be 0.0627 µM.

The compound `C[C@H](Nc1nc(Cl)cc(N2C(=O)OC[C@@H]2C2CC2)n1)c1cnn(-c2ccc(Cl)cc2)c1` [Example 5, (S)-3-(6-chloro-2-(((S)-1-(1-(4-chlorophenyl)-1H-pyrazol-4-yl)ethyl)amino)pyrimidin-4-yl)-4-cyclopropyloxazolidin-2-one] came in with an IC50 of 0.0332 µM.

In turn, `C[C@H](Nc1nccc(N2C(=O)OC[C@@H]2C2CC2)n1)c1ccn(-c2ccc(C(F)(F)F)nc2)n1` [Example 17, (S)-4-cyclopropyl-3-(2-(((S)-1-(1-(6-(trifluoromethyl)pyridin-3-yl)-1H-pyrazol-3-yl)ethyl)amino)pyrimidin-4-yl)oxazolidin-2-one] registered an IC50 of 0.169 µM.

Take `C[C@H](Nc1nc(Cl)cc(N2C(=O)OC[C@@H]2C2CC2)n1)c1ccccc1` [Example 2, (S)-3-(6-chloro-2-((S)-1-phenylethylamino)pyrimidin-4-yl)-4-cyclopropyloxazolidin-2-one]: the IC50 was 0.316 µM.
